Assay results taken from PubChem BioAssay (NCI).
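Grown in 96-well plates, cells were treated for 48 hours with each compound at five concentrations. Insufficient inhibition: endpoint recorded as highest concentration tested. GI50 is the concentration that inhibits growth by half. TGI: concentration producing complete growth inhibition.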

Experiments:
Assay in all cases: NCI tumour cell line growth inhibition, 48 h
786-0 renal = test system: 786-0 renal
A498 renal = test system: A498 renal
A549 NSCLC = test system: A549 NSCLC
ACHN renal = test system: ACHN renal
BT-549 breast = test system: BT-549 breast
CAKI-1 renal = test system: CAKI-1 renal
CCRF-CEM leukemia = test system: CCRF-CEM leukemia
COLO 205 colon = test system: COLO 205 colon
DU-145 prostate = test system: DU-145 prostate
EKVX NSCLC = test system: EKVX NSCLC
HCC-2998 colon = test system: HCC-2998 colon
HCT-116 colon = test system: HCT-116 colon
HCT-15 colon = test system: HCT-15 colon
HL-60(TB) leukemia = test system: HL-60(TB) leukemia
HOP-62 NSCLC = test system: HOP-62 NSCLC
HOP-92 NSCLC = test system: HOP-92 NSCLC
HS 578T breast = test system: HS 578T breast
HT29 colon = test system: HT29 colon
IGROV1 ovarian = test system: IGROV1 ovarian
K-562 leukemia = test system: K-562 leukemia
KM12 colon = test system: KM12 colon
LOX IMVI melanoma = test system: LOX IMVI melanoma
M14 melanoma = test system: M14 melanoma
MALME-3M melanoma = test system: MALME-3M melanoma
MCF7 breast = test system: MCF7 breast
MDA-MB-231 breast = test system: MDA-MB-231 breast
MOLT-4 leukemia = test system: MOLT-4 leukemia
NCI-H226 lung = test system: NCI-H226 lung
NCI-H23 lung = test system: NCI-H23 lung

In the case of `COc1ccc(/C=C\c2cc(OC)c(OC)c(OC)c2)cc1OC(=O)c1cccc(Cn2cc(CCOC(=O)[C@H](N)Cc3cn(C)c4ccccc34)nn2)c1`, the GI50 (786-0 renal) is reported as 0.111 µM, the TGI (786-0 renal) is reported as greater than 100 µM and the GI50 (A498 renal) is reported as less than 0.01 µM. The GI50 (A549 NSCLC) was 0.0322 µM, the TGI (A549 NSCLC) was greater than 100 µM and the GI50 (ACHN renal) was less than 0.01 µM. It also gave a TGI (ACHN renal) greater than 60.7 µM, a GI50 (BT-549 breast) of less than 0.01 µM and a TGI (BT-549 breast) of 13.3 µM. The GI50 (CAKI-1 renal) was less than 0.0139 µM, the TGI (CAKI-1 renal) was greater than 61.3 µM and the GI50 (CCRF-CEM leukemia) was less than 0.01 µM. For the same compound, the TGI (CCRF-CEM leukemia) was greater than 100 µM, the GI50 (COLO 205 colon) was 0.35 µM and the TGI (COLO 205 colon) was 1.55 µM. For the same compound, the GI50 (DU-145 prostate) was less than 0.01 µM, the TGI (DU-145 prostate) was greater than 100 µM and the GI50 (EKVX NSCLC) was 0.0538 µM. The TGI (EKVX NSCLC) was greater than 100 µM, the GI50 (HCC-2998 colon) was 0.0198 µM and the TGI (HCC-2998 colon) was 1.7 µM. It also gave a GI50 (HCT-116 colon) of less than 0.01 µM, a TGI (HCT-116 colon) of 38.7 µM and a GI50 (HCT-15 colon) of less than 0.01 µM. For the same compound, the TGI (HCT-15 colon) was greater than 44 µM, the GI50 (HL-60(TB) leukemia) was less than 0.01 µM and the GI50 (HOP-62 NSCLC) was less than 0.01 µM. It also gave a TGI (HOP-62 NSCLC) greater than 100 µM, a GI50 (HOP-92 NSCLC) of 0.206 µM and a TGI (HOP-92 NSCLC) greater than 88.2 µM. It also gave a GI50 (HS 578T breast) of less than 0.01 µM, a TGI (HS 578T breast) greater than 100 µM and a GI50 (HT29 colon) of 0.379 µM. For the same compound, the TGI (HT29 colon) was greater than 20.9 µM, the GI50 (IGROV1 ovarian) was less than 0.0136 µM and the TGI (IGROV1 ovarian) was greater than 100 µM. It also gave a GI50 (K-562 leukemia) of less than 0.01 µM, a TGI (K-562 leukemia) greater than 22.4 µM and a GI50 (KM12 colon) of less than 0.01 µM. For the same compound, the TGI (KM12 colon) was 16.5 µM, the GI50 (LOX IMVI melanoma) was less than 0.01 µM and the TGI (LOX IMVI melanoma) was 14.2 µM. For the same compound, the GI50 (M14 melanoma) was less than 0.01 µM, the TGI (M14 melanoma) was 16.9 µM and the GI50 (MALME-3M melanoma) was 0.081 µM. The TGI (MALME-3M melanoma) was 25.6 µM, the GI50 (MCF7 breast) was 0.0123 µM and the TGI (MCF7 breast) was 14 µM. For the same compound, the GI50 (MDA-MB-231 breast) was less than 0.01 µM, the TGI (MDA-MB-231 breast) was greater than 51.9 µM and the GI50 (MOLT-4 leukemia) was less than 0.01 µM. It also gave a TGI (MOLT-4 leukemia) of 18.8 µM, a GI50 (NCI-H226 lung) of less than 0.0169 µM and a TGI (NCI-H226 lung) of 38.9 µM. For the same compound, the GI50 (NCI-H23 lung) was less than 0.01 µM.
